Laboratory results taken from patent publication US20230381202A1, “COMPOSITIONS AND METHODS FOR TREATING CARDIOVASCULAR RELATED DISORDERS” (The Regents of the University of Michigan, priority 2020, published 2023).

What was measured:
whole blood = assay: Coagulation tests by thromboelastography; format: in vivo, mouse; conditions: 24 hours post IV; ML355 1.5 mg/kg, sHDL 50 mg/kg
Experimental: Male and female C57BL/6J mice (n=6) were intravenously injected with vehicle control (equivalent volume of saline), ML355 (1.5 mg/kg), sHDL (50 mg/kg) or ML355-sHDL (sHDL at 50 mg/kg and ML355 at 1.5 mg/kg), respectively. 24 hours after administration, mice were anesthetized by intraperitoneal injection of ketamine/xylazine mixture as described above. Whole blood was collected via vena cava using a 25 G syringe containing sodium citrate 3.8% (blood to citrate volume ratio is […]). 340 μL citrated blood was mixed with 20 μL CaCl2 (0.2 mol/L), and viscoelastic properties of whole blood clot formation was studied under low shear stress using a Heamoscope TEG 5000 Thrombelastograph Hemostasis Analyzer (Haemonetics Corp., Braintree, Massachusetts, USA) according to the manufacturer's instructions. Major coagulation parameters including R time (time to formation of the initial fibrin threads), Alpha angle (the rapidity with which the clot forms), K time (the time until the clot reaches a certain strength) and maximum amplitude (clot's maximum strength) were analyzed and compared among different groups.

washed human platelets = assay: In vitro washed human platelet aggregation test (thrombin-induced); format: cell-based; conditions: ML355 10 μM, sHDL 100 μg/mL, 15 minutes
Experimental: Human platelets were prepared and aggregation was assayed as described previously (44, 45, 56). Platelets were incubated with DMSO (equivalent volume to dissolve ML355) and treated with control, ML355 (10 μM), sHDL (100 μg/mL), or ML355-sHDL (sHDL at 100 μg/mL and ML355 at 10 μM) for 15 minutes. In addition, untreated platelets were included as control. Platelet aggregation was induced by various doses of thrombin (0.1-1 nM) as reported in previous studies (44). Aggregation was measured in response to thrombin with a lumi-aggregometer (Model 700D; Chrono-Log) under stirring conditions at 1100 rpm at 37° C.

platelets = assay: Phosphatidylserine exposure on platelets; format: in vivo, mouse; conditions: 1, 6 and 24 hours post IV; compared to resting platelets
Experimental: Male and female C57BL/6J mice (n=6) were intravenously dosed with the following treatments: 1) Saline control (equivalent volume); 2) ML355 (1.5 mg/kg); 3) sHDL (50 mg/kg); or 4) ML355-sHDL (sHDL at 50 mg/kg and ML355 at 1.5 mg/kg). At different time points post administration (1, 6 and 24 hours), the phosphatidylserine-exposure over time course in platelets from different groups were quantified by flow cytometry. Briefly, whole blood was collected from the saphenous vein and incubated with PE anti-mouse CD41 Antibody (BioLegend #133906) for platelet labeling and Annexin V, Alexa Fluor™ 647 conjugate (phosphatidylserine-exposure) (Thermo Fisher Scientific). The mean fluorescent intensity of Annexin in platelets was quantified by flow cytometry. In addition, blood collected from mice prior to treatment was taken as resting platelets (negative control) and blood stimulated with PAR4-AP (200 μM) was used as activated platelets (positive control).

C57BL/6J mice [1] = assay: FeCl3-induced carotid artery thrombosis model; format: in vivo, mouse; conditions: IV 24 hours before 10% FeCl3 injury
Experimental: Male and female C57BL/6J mice (n=6) were intravenously injected with vehicle control (equivalent volume of saline), ML355 (1.5 mg/kg), sHDL (50 mg/kg) or ML355-sHDL (sHDL at 50 mg/kg and ML355 at 1.5 mg/kg), respectively. 24 hours post-administration, mice were anesthetized as described above and tail veins were injected with a DyLight 488 anti-GPIb (1 μg/g; Emfret, Elbelstadt, Germany) to label circulating resting platelets in mice prior to intravital microscopy imaging. The mice were placed on a heating pad and the right common carotid artery was prepared under the dissecting microscope. Then, the mice were placed on the microscopic stage and blood flow in the carotid artery was visualized under 10× air objective using a Zeiss Axio Examiner Z1 upright fluorescent microscopy. Carotid artery injury was induced by topically placing a 10% FeCl3 saturated Whatman paper for 3 minutes under recording. Images of platelet adhesion and the dynamics of thrombus formation were recorded for 30 minutes using a high-speed sCMOS camera using Slidebook 6.0.

washed mouse platelets = assay: Ex vivo washed mice platelet activation inhibition test (thrombin-induced aggregation); format: in vivo; conditions: for platelet aggregation: 24 hours after IV ML355 1.5 mg/kg, sHDL 50 mg/kg
Experimental: Male and female C57BL/6J mice were divided into four groups (n=4) and intravenously dosed with the following formulations: 1) control vehicle (equivalent volume); 2) ML355 (1.5 mg/kg); 3) sHDL (50 mg/kg); or 4) ML355-sHDL (sHDL at 50 mg/kg and ML355 at 1.5 mg/kg). 24 hours after administration, mice were sacrificed under terminal anesthesia. […] Mouse platelet preparation was performed as previously described (44, 45). Murine platelets were resuspended at 3×10^8 platelets/mL in Tyrode's buffer. Mouse platelet aggregation was induced by various doses of thrombin (0.1-0.5 nM) and measured with a lumi-aggregometer using the same method described above.

C57BL/6J mice [2] = assay: Laser-induced cremaster arteriole thrombosis model; format: in vivo, mouse; conditions: IV 24 hours before injury; ML355 1.5 mg/kg, sHDL 50 mg/kg
Experimental: Male C57BL/6J mice (n=3) were intravenously dosed with the following treatments: 1) saline control (equivalent volume); 2) ML355 (1.5 mg/kg); 3) sHDL (50 mg/kg); or 4) ML355-sHDL (sHDL at 50 mg/kg and ML355 at 1.5 mg/kg). 24 hours post-administration, mice were anesthetized and surgically prepared as above described. DyLight 647-conjugated rat anti-mouse platelet GP11:43 antibody (0.1 μg/g; X649; EMFRET Analytics) was administered by jugular vein cannula prior to vascular injury. Multiple independent thrombi (8-10) were induced in the arterioles (30-50 μm diameter) in each mouse (3 mice per group) by a laser ablation system. All captured images were analyzed for change in fluorescent intensity over time of thrombus formation by subtracting fluorescent background defined on an uninjured section of the vessel using the Slidebook program. To monitor and compare dynamic thrombus formation among different treatment groups, the relative fluorescent intensity of Alexa Flour 647-labled platelets (recruited within thrombus) was plotted using the mean fluorescence at each time point. Data were evaluated for significance with two-way ANOVA and Mann-Whitney test for nonparametric data using Prism 6 software (Graphpad, La Jolla, CA, USA).

C57BL/6J mice [3] = assay: Mouse tail bleeding assay; format: in vivo; conditions: 24 hours post IV; ML355 1.5 mg/kg, sHDL 50 mg/kg
Experimental: Male and female C57BL/6J mice (n=6) were intravenously dosed with the following treatments: 1) vehicle control (equivalent volume); 2) ML355 (1.5 mg/kg); 3) sHDL (50 mg/kg); or 4) ML355-sHDL (sHDL at 50 mg/kg and ML355 at 1.5 mg/kg). The tail bleeding assay was performed post 24 hour of treatment as previously described (44, 56). Briefly, mice were anesthetized as described above and placed on a heating pad. Five millimeters of tail tip was excised, and the tails were immediately immersed in 14 mL of sterile saline at 37° C. Bleeding time was recorded as the cessation of blood flow from the tail for at least […] using a stopwatch. The amount of blood loss from tail tip was quantified by measuring hemoglobin using Drabkin's reagent (Sigma). Briefly, blood samples were pelleted at 500 g for 10 minutes at room temperature, and the pellet was resuspended in 5 mL Drabkin's Reagent and incubated at room temperature for 15 minutes. Amount of hemoglobin lost was quantified by comparing the absorbance of the samples at 540 nm using SpectraMax i3 microplate reader (Molecular Devices LLC., San Jose, CA) to a standard curve of bovine hemoglobin in Drabkin's reagent.

[4] = pH 7.4 PBS; cited from earlier work

coagulation (TEG parameters R time, K time, alpha angle, MA) (whole blood): did not compromise the coagulation
platelet phosphatidylserine exposure (platelets): did not increase
blood loss evaluated by measuring hemoglobin (C57BL/6J mice [3]): no effect
tail bleeding time (C57BL/6J mice [3]): did not prolong
Structure (SMILES): COc1cccc(CNc2ccc(S(=O)(=O)Nc3nc4ccccc4s3)cc2)c1O [ML355, N-2-benzothiazolyl-4-[[(2-hydroxy-3-methoxyphenyl)methyl]amino]-benzenesulfonamide]
platelet aggregation (washed human platelets; 0.1 nM thrombin): 5.6±2.5%
platelet aggregation (washed human platelets; 0.25 nM thrombin): 40.4±6.8%
platelet aggregation (washed human platelets; 0.5 nM thrombin): 76.4±4.7%
thrombus growth (and vessel occlusion) (C57BL/6J mice [1]): delayed and unstable
mean vessel occlusion time (C57BL/6J mice [1]; ML355 1.5 mg/kg, sHDL 50 mg/kg): 11.0 ± 2.3 min
platelet aggregation (washed mouse platelets; 0.1 nM thrombin): 20.3±3.5%
platelet aggregation (washed mouse platelets; 0.25 nM thrombin): 32.6±6.6%
inhibitory effects on platelet aggregation (washed mouse platelets; 0.5 nM thrombin, 24 hours after IV dosing): overcome
inhibition of thrombus formation (platelet accumulation in thrombi) (C57BL/6J mice [2]): varying levels of inhibition
estimated solubility [4]: < 5 µg/mL
